Results: article PMC6784069 (Toxins, 2019)
Where “and” joins values, the source holds several entries; their conditions need not be identical. Equal values may be shown once. Read-outs that look alike come from different tables or passages of the source. Residues, ends and D or L forms follow the SMILES beside them.

Columns and labels:
[1] = biological target: hNaV1.5 (Homo sapiens, UniProt Q14524); test: cell-based; conditions: IC50 on hNaV1.5 current; SD
[2] = tested on: OD1-induced painful behavior of mice; conditions: mouse, in vivo
[3] = biological target: T1, hKV11.1 (Homo sapiens, UniProt Q12809)
[4] = tested on: Drosophila Para/TipE; conditions: cited from earlier work
[5] = tested on: CFA-induced heat hyperalgesia; conditions: mouse, in vivo; cited from earlier work
[6] = tested on: NaV1.5; conditions: cited from earlier work
[7] = tested on: paw formalin injection pain; conditions: mouse, in vivo; cited from earlier work
[8] = biological target: hNaV1.2 (Homo sapiens, UniProt Q99250); test: cell-based; conditions: SD
[9] = tested on: acute heat responses; conditions: in vivo, ip; cited from earlier work
[10] = tested on: NaV1.7; conditions: cited from earlier work
[11] = tested on: NaV1.8; conditions: cited from earlier work
[12] = tested on: NaV1.3; conditions: cited from earlier work
[13] = tested on: NaV1.2; conditions: cited from earlier work
[14] = biological target: T2, hNaV1.7 (Homo sapiens, UniProt Q15858); test: cell-based; format: cell-based; conditions: for IC50: SD
[15] = biological target: hCaV1.2 (Homo sapiens, UniProt Q13936); test: cell-based; conditions: SD
[16] = biological target: hNaV1.8 (Homo sapiens, UniProt Q9Y5Y9); test: cell-based; format: cell-based
[17] = tested on: NaV1.1; conditions: cited from earlier work
[18] = tested on: hNaV1.2, 1.5 and 1.7–1.8, hCaV1.2 and hKV11.1 currents; conditions: for Hill number nH, all concentration–response curves: SD
[19] = biological target: hNaV1.6 (Homo sapiens, UniProt Q9UQD0); test: cell-based; conditions: SD
[20] = biological target: hNaV1.3 (Homo sapiens, UniProt Q9NY46); test: cell-based; conditions: SD
[21] = biological target: hNaV1.1 (Homo sapiens, UniProt P35498); test: cell-based; conditions: SD
[22] = tested on: hNaV1.1–1.8; format: cell-based, human; conditions: read-out: IC90–95 (compound concentration necessary to inhibit 90–95% of current)
[23] = biological target: T1, hKV11.1; test: in vitro; conditions: pH 7.4
[24] = biological target: T2, hNaV1.7; conditions: cited from earlier work
[25] = tested on: OD1-induced painful behavior of mice; conditions: mouse, in vivo; cited from earlier work

T2 sequence (Q15858 whole entry): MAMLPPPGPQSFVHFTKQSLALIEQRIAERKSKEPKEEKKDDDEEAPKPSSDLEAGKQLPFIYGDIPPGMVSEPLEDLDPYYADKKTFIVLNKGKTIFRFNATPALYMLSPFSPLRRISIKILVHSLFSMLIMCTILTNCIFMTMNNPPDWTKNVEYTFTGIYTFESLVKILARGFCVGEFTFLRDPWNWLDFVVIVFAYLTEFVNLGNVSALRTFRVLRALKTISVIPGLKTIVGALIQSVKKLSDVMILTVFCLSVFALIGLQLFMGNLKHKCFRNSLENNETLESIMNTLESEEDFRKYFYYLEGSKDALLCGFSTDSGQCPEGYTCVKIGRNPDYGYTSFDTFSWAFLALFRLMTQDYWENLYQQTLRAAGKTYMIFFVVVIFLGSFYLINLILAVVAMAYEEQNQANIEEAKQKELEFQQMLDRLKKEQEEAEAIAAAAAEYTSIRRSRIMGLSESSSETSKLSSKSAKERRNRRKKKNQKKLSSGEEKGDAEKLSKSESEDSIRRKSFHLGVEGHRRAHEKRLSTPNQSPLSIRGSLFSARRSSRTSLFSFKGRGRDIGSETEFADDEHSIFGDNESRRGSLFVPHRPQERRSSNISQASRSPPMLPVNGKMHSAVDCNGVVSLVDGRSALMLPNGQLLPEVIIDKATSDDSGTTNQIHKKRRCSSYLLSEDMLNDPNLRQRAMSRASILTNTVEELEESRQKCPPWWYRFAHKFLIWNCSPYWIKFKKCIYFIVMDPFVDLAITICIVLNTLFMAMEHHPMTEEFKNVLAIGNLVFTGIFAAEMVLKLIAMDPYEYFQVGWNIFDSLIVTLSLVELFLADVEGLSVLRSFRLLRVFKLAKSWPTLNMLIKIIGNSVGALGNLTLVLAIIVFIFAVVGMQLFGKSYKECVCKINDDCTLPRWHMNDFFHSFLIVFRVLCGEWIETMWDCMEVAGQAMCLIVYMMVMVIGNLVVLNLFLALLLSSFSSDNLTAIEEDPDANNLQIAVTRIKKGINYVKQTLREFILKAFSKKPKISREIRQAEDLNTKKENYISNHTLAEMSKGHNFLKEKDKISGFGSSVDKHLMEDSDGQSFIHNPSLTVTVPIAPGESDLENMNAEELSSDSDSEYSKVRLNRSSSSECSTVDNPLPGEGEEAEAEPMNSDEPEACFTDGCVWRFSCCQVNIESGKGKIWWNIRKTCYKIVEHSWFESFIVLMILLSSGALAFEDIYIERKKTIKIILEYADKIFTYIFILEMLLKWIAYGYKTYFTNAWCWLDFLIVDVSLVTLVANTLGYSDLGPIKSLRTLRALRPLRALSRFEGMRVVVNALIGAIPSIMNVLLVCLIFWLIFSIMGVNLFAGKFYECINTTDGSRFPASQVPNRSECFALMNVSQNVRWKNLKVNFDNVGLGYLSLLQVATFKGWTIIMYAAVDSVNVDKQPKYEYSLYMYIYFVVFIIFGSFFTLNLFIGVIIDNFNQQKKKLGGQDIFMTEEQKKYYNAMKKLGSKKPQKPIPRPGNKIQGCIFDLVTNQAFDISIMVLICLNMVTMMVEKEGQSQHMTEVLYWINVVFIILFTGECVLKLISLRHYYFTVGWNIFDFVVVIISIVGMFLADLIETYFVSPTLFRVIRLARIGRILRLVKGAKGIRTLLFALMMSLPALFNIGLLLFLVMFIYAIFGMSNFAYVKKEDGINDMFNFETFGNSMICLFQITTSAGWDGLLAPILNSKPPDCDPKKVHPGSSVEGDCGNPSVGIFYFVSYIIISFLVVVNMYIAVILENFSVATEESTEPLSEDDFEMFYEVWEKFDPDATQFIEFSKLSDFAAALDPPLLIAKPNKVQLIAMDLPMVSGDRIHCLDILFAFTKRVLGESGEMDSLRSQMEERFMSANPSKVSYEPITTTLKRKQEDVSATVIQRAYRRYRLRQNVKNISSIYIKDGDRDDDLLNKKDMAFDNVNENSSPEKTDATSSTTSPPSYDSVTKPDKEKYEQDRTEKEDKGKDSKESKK
Sequence of hNaV1.5 (Q14524 whole entry, looked up): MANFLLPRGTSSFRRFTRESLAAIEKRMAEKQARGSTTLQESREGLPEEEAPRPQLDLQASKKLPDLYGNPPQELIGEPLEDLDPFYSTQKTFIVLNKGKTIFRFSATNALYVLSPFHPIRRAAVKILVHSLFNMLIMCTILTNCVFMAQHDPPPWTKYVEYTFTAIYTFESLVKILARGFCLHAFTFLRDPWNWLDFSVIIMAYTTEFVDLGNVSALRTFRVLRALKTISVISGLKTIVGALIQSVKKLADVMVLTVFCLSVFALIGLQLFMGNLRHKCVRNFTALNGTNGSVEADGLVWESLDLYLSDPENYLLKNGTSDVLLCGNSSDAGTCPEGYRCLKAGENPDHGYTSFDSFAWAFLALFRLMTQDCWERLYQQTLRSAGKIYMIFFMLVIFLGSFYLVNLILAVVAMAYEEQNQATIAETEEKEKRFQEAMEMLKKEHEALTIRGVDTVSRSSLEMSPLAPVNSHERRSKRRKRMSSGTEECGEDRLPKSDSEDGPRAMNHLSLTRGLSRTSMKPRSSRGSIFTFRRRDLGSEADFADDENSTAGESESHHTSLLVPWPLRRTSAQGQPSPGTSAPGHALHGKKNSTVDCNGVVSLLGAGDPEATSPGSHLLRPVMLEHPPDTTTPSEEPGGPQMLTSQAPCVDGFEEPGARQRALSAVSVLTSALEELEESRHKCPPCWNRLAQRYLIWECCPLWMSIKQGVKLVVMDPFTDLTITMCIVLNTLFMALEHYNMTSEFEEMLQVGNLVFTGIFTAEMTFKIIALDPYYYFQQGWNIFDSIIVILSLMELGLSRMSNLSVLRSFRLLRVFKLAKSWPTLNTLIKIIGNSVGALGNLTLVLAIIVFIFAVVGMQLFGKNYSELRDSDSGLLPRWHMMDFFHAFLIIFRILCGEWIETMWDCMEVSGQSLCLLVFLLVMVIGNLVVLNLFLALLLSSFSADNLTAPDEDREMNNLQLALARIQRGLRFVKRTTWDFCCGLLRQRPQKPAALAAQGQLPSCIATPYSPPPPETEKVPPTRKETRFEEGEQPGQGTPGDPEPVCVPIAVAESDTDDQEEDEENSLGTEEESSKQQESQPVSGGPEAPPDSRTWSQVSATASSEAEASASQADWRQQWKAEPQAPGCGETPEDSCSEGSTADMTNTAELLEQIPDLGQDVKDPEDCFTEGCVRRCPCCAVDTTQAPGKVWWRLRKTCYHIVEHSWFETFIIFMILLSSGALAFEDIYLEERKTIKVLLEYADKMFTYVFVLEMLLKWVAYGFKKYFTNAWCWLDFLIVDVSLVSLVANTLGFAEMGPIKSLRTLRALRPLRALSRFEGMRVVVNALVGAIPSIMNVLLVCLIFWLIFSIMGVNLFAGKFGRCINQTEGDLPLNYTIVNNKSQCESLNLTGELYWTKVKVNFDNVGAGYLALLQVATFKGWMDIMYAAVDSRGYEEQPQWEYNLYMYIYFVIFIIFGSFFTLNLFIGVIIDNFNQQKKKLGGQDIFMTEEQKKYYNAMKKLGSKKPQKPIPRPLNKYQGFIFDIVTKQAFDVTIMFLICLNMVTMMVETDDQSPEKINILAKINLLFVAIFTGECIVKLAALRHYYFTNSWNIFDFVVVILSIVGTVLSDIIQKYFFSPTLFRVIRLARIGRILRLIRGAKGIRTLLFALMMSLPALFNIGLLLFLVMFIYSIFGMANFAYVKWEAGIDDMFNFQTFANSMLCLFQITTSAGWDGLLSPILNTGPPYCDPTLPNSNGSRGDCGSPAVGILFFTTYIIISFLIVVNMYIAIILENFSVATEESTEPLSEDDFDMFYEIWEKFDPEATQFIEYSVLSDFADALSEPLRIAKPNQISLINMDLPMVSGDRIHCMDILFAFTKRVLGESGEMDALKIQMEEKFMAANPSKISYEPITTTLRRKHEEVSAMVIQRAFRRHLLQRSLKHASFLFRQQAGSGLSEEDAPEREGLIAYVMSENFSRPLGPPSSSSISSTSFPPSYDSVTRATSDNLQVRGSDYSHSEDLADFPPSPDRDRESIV
T1 sequence (Q12809 whole entry): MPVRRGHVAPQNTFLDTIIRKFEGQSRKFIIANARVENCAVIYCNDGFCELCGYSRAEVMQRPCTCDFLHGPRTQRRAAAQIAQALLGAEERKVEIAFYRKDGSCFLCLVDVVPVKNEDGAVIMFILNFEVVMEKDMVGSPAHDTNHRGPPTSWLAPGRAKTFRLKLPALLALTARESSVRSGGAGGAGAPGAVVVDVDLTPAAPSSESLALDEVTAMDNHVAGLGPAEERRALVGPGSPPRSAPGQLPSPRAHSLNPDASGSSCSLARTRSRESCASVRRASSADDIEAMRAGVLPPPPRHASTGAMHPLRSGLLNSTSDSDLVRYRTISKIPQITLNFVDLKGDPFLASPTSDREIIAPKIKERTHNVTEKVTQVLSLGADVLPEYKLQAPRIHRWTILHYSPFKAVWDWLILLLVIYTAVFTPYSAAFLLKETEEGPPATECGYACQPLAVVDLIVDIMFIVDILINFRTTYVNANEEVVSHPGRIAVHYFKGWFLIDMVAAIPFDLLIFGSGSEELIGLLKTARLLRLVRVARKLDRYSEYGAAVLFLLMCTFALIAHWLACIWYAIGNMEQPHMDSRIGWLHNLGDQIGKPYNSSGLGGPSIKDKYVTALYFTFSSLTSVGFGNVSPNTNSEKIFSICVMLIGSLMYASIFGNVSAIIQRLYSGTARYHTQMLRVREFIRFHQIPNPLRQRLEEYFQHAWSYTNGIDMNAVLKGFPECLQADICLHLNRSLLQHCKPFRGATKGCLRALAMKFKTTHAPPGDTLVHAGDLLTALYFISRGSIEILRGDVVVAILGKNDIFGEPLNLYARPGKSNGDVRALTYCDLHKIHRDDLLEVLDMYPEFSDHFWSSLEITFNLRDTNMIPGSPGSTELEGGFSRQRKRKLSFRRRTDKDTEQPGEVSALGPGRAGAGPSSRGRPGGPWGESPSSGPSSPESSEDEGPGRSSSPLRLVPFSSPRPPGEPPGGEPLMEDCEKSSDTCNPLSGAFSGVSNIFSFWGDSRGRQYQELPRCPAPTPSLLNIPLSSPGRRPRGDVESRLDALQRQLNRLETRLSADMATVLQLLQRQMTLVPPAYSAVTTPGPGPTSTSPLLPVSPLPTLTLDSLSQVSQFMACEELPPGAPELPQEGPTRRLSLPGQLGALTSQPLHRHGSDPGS

Compound: CC(C)C[C@@H]1NC(=O)[C@@H](NC(=O)[C@H](C)N)CSSC[C@@H]2NC(=O)[C@@H]3CSSC[C@@H](C(=O)N[C@@H](CCCNC(=N)N)C(=O)N[C@@H](Cc4ccc(O)cc4)C(=O)N[C@@H](CCCCN)C(=O)N[C@@H](CC(C)C)C(=O)N[C@@H](Cc4ccccc4)C(=O)O)NC(=O)[C@H](Cc4c[nH]c5ccccc45)NC(=O)[C@@H]4CCCN4C(=O)[C@H](Cc4ccc(O)cc4)NC(=O)[C@H](CCCCN)NC(=O)[C@H](Cc4c[nH]c5ccccc45)NC(=O)[C@H](CCC(=O)O)NC(=O)[C@H](CSSC[C@H](NC(=O)[C@H](CO)NC(=O)[C@H](CC(=O)O)NC(=O)[C@H](Cc4c[nH]c5ccccc45)NC(=O)[C@H](CCC(N)=O)NC(=O)CNC1=O)C(=O)N[C@@H](CC(=O)O)C(=O)N1CCC[C@H]1C(=O)N[C@@H](CCCCN)C(=O)N[C@@H](C)C(=O)N[C@@H](CO)C(=O)N[C@@H](CCCCN)C(=O)N3)NC(=O)[C@H](C)NC(=O)[C@H](Cc1ccc(O)cc1)NC(=O)[C@H](CC(N)=O)NC(=O)[C@@H]1CCCN1C2=O [PhlTx1] (HELM PEPTIDE1{A.C.L.G.Q.W.D.S.C.D.P.K.A.S.K.C.C.P.N.Y.A.C.E.W.K.Y.P.W.C.R.Y.K.L.F}$PEPTIDE1,PEPTIDE1,2:R3-17:R3|PEPTIDE1,PEPTIDE1,9:R3-22:R3|PEPTIDE1,PEPTIDE1,16:R3-29:R3$$$V2.0)
- IC50 [1]: 711 nM and 396 nM
- cardiac or neuromuscular side-effects [2]: no sign of cardiac or neuromuscular side-effects
- effect on the hKV11.1 current [3]: no effect
- inhibition of Drosophila Para/TipE current [4]: less than 10%
- analgesia in CFA-induced heat hyperalgesia [5]: ineffective
- inhibition of NaV1.5 current [6]: less than 10%
- effects in acute and inflammatory neuropathic (paw formalin injection) pain [7]: Anti-allodynic and analgesic effects
- IC50 [8]: 73.7 ± 46.3 nM
- IC50 ([8]; read-out: IC50 on hNaV1.2 current): 279 ± 6.1 nM
- effect on mouse acute heat responses [9]: ineffective
- inhibition of NaV1.7 current [10]: greater than 90%
- IC50 ([10]; read-out: mean IC50 for interaction with the NaV1.7 subtype): 260 nM
- inhibition of NaV1.8 current [11]: less than 10%
- inhibition of NaV1.3 current [12]: less than 10%
- inhibition of NaV1.2 current [13]: less than 10%
- pharmacological activity on the hNaV1.7 current [14]: strongly inhibit
- selectivity towards the TTX-R (except hNaV1.8) and other TTX-S (except hNaV1.4) hNaV subtypes [14]: less than 10 fold
- IC50 ([14]; IC50 on hNaV1.7 current): 309 ± 17 nM
- IC50 ([14]; hNaV1.7 IC50): 254 nM
- IC50 [15]: 5900 ± 2100 nM
- IC50 [16]: > 10000 nM
- effect on the hNaV1.8 current [16]: unaffected
- inhibition of NaV1.1 current [17]: less than 10%
- Hill number nH, all concentration–response curves [18]: 1.05 ± 0.15
- IC50 [19]: 491 ± 109 nM
- IC50 [20]: 202 ± 110 nM
- IC50 [21]: 280 ± 118 nM

Compound: NC1=N[C@H](O)[C@H]2[C@H]3O[C@]4(O)O[C@@H]([C@@H](O)[C@@]2(N1)[C@@H]4O)[C@]3(O)CO [Tetrodotoxin (citrate), Tetrodotoxin]
- IC90 [22]: 1000 nM

Compound: CC[C@H](C)[C@H](NC(=O)[C@H](CC(=O)O)NC(=O)[C@@H](NC(=O)[C@@H]1CCCN1C(=O)[C@@H](N)CCCNC(=N)N)[C@@H](C)O)C(=O)N[C@@H](CCCCN)C(=O)N[C@H]1CSSC[C@@H]2NC(=O)[C@H](CCCNC(=N)N)NC(=O)CNC(=O)[C@H](CC(N)=O)NC(=O)[C@H]([C@@H](C)O)NC(=O)[C@H](CCCCN)NC(=O)CNC(=O)[C@H](Cc3ccccc3)NC(=O)[C@H](CCCNC(=N)N)NC(=O)[C@H](CO)NC(=O)[C@H](CCCCN)NC(=O)[C@@H]3CSSC[C@@H](C(=O)N[C@@H](Cc4ccccc4)C(=O)O)NC(=O)[C@H](CC(=O)O)NC(=O)[C@H](CSSC[C@H](NC(=O)[C@H](CCC(N)=O)NC(=O)[C@H](Cc4ccc(O)cc4)NC(=O)[C@H](CO)NC(=O)[C@H](CCC(=O)O)NC(=O)[C@H](CO)NC1=O)C(=O)N[C@@H](Cc1ccccc1)C(=O)N1CCC[C@H]1C(=O)N[C@@H](C(C)C)C(=O)N3)NC(=O)[C@H](Cc1ccccc1)NC(=O)CNC(=O)[C@H](CC(N)=O)NC(=O)[C@H](C(C)C)NC2=O [BeKm-1] (HELM PEPTIDE1{R.P.T.D.I.K.C.S.E.S.Y.Q.C.F.P.V.C.K.S.R.F.G.K.T.N.G.R.C.V.N.G.F.C.D.C.F}$PEPTIDE1,PEPTIDE1,7:R3-28:R3|PEPTIDE1,PEPTIDE1,13:R3-33:R3|PEPTIDE1,PEPTIDE1,17:R3-35:R3$$$V2.0)
- IC90 [23]: 1000 nM

Compound: CcoTx1: spider toxin, NaV ligand (CLGWFKSCDPKNDKCCKNYTCSRRDRWCKYDL)
- IC50 [24]: 2 to 130 nM
- concentration efficient to diminish or completely reverse the OD1-induced manifestations of pain [25]: 1 µM

Compound: CC(C)C[C@@H]1NC(=O)[C@@H](NC(=O)[C@H](C)N)CSSC[C@@H]2NC(=O)[C@@H]3CSSC[C@@H](C(=O)N[C@@H](CCCNC(=N)N)C(=O)N[C@@H](Cc4ccc(O)cc4)C(=O)N[C@@H](CCCCN)C(=O)N[C@@H](CC(C)C)C(=O)N[C@@H](Cc4ccccc4)C(=O)O)NC(=O)[C@H](Cc4c[nH]c5ccccc45)NC(=O)[C@@H]4CCCN4C(=O)[C@H](Cc4ccc(O)cc4)NC(=O)[C@H](CCCCN)NC(=O)[C@H](Cc4c[nH]c5ccccc45)NC(=O)[C@H](CCC(=O)O)NC(=O)[C@H](CSSC[C@H](NC(=O)[C@H](CO)NC(=O)[C@H](C)NC(=O)[C@H](Cc4c[nH]c5ccccc45)NC(=O)[C@H](CCC(N)=O)NC(=O)CNC1=O)C(=O)N[C@@H](CC(=O)O)C(=O)N1CCC[C@H]1C(=O)N[C@@H](CCCCN)C(=O)N[C@@H](C)C(=O)N[C@@H](CO)C(=O)N[C@@H](CCCCN)C(=O)N3)NC(=O)[C@H](C)NC(=O)[C@H](Cc1ccc(O)cc1)NC(=O)[C@H](CC(N)=O)NC(=O)[C@@H]1CCCN1C2=O [D7A] (HELM PEPTIDE1{A.C.L.G.Q.W.A.S.C.D.P.K.A.S.K.C.C.P.N.Y.A.C.E.W.K.Y.P.W.C.R.Y.K.L.F}$PEPTIDE1,PEPTIDE1,2:R3-17:R3|PEPTIDE1,PEPTIDE1,9:R3-22:R3|PEPTIDE1,PEPTIDE1,16:R3-29:R3$$$V2.0)
- IC50 [1]: 93.3 ± 32.9 nM
- activity on the KV11.1 subtype [3]: inactive
- IC50 [8]: 47.3 ± 5.2 nM
- IC50 ([14]; IC50 on hNaV1.7 current): 73 ± 23.7 nM
- IC50 ([14]; hNaV1.7 IC50): 47 nM
- IC50 [15]: 800 ± 253 nM
- IC50 ([16]; SD): 4000 ± 500 nM
- gain of affinity versus PhlTx1 [18]: 2.5-7.4 fold
- Hill number nH, all concentration–response curves [18]: 1.06 ± 0.13

Compound: Cd1a: spider toxin, NaV ligand (CLGWFKSCDPKNDKCCKNYSCSRRDRWCKYDL)
- IC50 [24]: 16 nM
- concentration efficient to diminish or completely reverse the OD1-induced manifestations of pain [25]: 1 µM
